Data published in US20040044281A1, “Systems and methods for assessing blood flow in a target tissue” (priority 2002, published 2004).
Where “and” joins values, the source holds several entries; their conditions need not be identical. Equal entries are not always repeated.

Test system: tumor blood flow
Assay: DCE-MRI tumor blood flow estimation pre- and post-treatment in patients of a phase I trial
Type: in vivo, human
Set-up: Change tgp / Change Gpeak / Change tgp10 / Change E: unit not given here
Conditions: individual patients; for Post-treatment E (enhancement) / Post-treatment Gpeak (gradient peak) / Post-treatment tgp10 (time till gradient drops to 10% of Gpeak) / Post-treatment tgp (time to gradient peak): DCE-MRI 4-6 hrs after infusion, tumor ROI; for Change E / Change Gpeak / Change tgp / Change tgp10: post minus pre-treatment
Experimental: The above equation (4) for Srel can be solved for the concentration variable C if the baseline set of MR image data set is set equal to Sbaseline, and the post MR sets of image data is set equal to the variable Spostcontrast. Concentration C can be calculated on a pixel by pixel or voxel by voxel basis and then averaged resulting in a data set of Concentration C as a function of time. A shown in Block 50 of FIG. 1, the mathematical derivative of Concentration C is determined, preferably by fitting a curve through the concentration data set and then taking the derivative of the curve equation to acquire a gradient curve. The gradient curve represents the rate of change of the tissue concentration of the contrast agent in the ROI. As shown in block 60 of FIG. 1, the maximum value of the rate of change of concentration per time (dC/dt) or Gpeak, is then determined. Thus, Gpeak, which is the magnitude of the first derivative of the concentration curve, can be employed as a flow analog that maintains a high correlation with flow with minimal sensitivity to variations in volume Ve. MRI acquisition techniques, coupled with image analysis techniques (e.g., intensity, rate of change of intensity), facilitate determining the efficacy of a treatment.
With A=40 mMol·sec (the area under curve without recirculation), B=0.5 mMol (the equilibrium concentration), and tp was the time to peak. […] In each case flow F was varied from 0.001 to 0.03 ml/sec/g. Five parameters were calculated from each curve as shown for example purposes in FIG. 5. Magnitude of the first derivative peak (Gpeak), time from bolus arrival to first derivative peak (tgp,) time for gradient to drop to 10% of peak value (tgp10,), the concentration at tgp10 (denoted CE), and initial area under the CT curve from bolus arrival to 60 sec afterwards (IAUC) (Evelhoch, 1999.
DCE-MRI. Six patients were studied using a 1.5T scanner (Siemens Magnetom Vision). Perfusion studies were obtained with a single-slice Fast Low Angle Shot (FLASH) sequence (TR=10, TE=4, FA=30°, slice thickness=10 mm, matrix=128×256, FOV=16×25 cm-35×35 cm) repeated 128 times, once every 2.6 seconds. The first 10 images were obtained without contrast enhancement, after which an approximately 10 second bolus of Gadolinium-DTPA contrast agent (Magnevist, Berlex Laboratories) was administered intravenously. […] DCE-MRI was performed twice on each patient; once to obtain a pre-treatment baseline, and once 4-6 hrs after infusion of combretestatin. The slice position and orientation between days within each patient was carefully matched to obtain data from the same region of interest (ROI) in the tumor. Image processing was performed off-line using a custom software package that permitted a trained rater to view all 128 images in a study and to interactively identify the tumor ROI.

SMILES: COc1ccc(/C=C\c2cc(OC)c(OC)c(OC)c2)cc1OP(=O)(O)O [CA4P, disodium combretastatin-A-4-3-O-phosphate]
- Post-treatment E (enhancement) (60 mg/m^2 (10 min)): 2.01 and 1.87
- Post-treatment Gpeak (gradient peak) (60 mg/m^2 (10 min)): 6.18 and 5.71
- Post-treatment tgp10 (time till gradient drops to 10% of Gpeak) (60 mg/m^2 (10 min)): 25.30 and 34.50
- Post-treatment tgp (time to gradient peak) (60 mg/m^2 (10 min)): 11.50 and 6.90
- Post-treatment E (enhancement) (60 mg/m^2 (1 hr)): 1.72 and 1.76 and 1.80 and 1.28 and 1.30
- Post-treatment Gpeak (gradient peak) (60 mg/m^2 (1 hr)): 4.93 and 3.57 and 3.47 and 2.19 and 1.48
- Post-treatment tgp10 (time till gradient drops to 10% of Gpeak) (60 mg/m^2 (1 hr)): 36.60 and 44.50 (2×) and 20.90 and 52.60
- Post-treatment tgp (time to gradient peak) (60 mg/m^2 (1 hr)): 7.86 (2×) and 15.70 and 13.10 and 11.70
- Change E (60 mg/m^2 (10 min)): −0.41 and 0.05
- Change Gpeak (60 mg/m^2 (10 min)): −1.12 and 0.92
- Change tgp (60 mg/m^2 (10 min)): 0.00
- Change tgp10 (60 mg/m^2 (10 min)): −13.80 and −4.60
- Change E (60 mg/m^2 (1 hr)): −0.27 and −0.06 and −0.13 and −0.22 and −0.20
- Change Gpeak (60 mg/m^2 (1 hr)): −3.76 and −1.05 and −1.53 and −1.44 and −1.75
- Change tgp (60 mg/m^2 (1 hr)): 0.00 and 2.60 and 5.24 and 2.62 and −4.00
- Change tgp10 (60 mg/m^2 (1 hr)): 18.30 and 5.20 and 10.50 and −15.70 and 21.20
